Values quoted from earlier work, collected in patent US20250375478A1, “THERAPEUTIC COMPOSITION, ASSEMBLY KIT AND METHOD FOR THE TREATMENT OF DRY EYE DISEASE AND PROMOTION OF OCULAR HEALTH” (PReye, LLC, priority 2025, published 2025).

Conditions: ferulic acid combined in solution with Vitamin C

stabilization of Vitamin C: up to 90%
Structure (SMILES): COc1cc(/C=C/C(=O)O)ccc1O [Ferulic acid]
